According to ChEMBL document CHEMBL1201862, “PubChem BioAssay data set” (2004):
Each block holds one compound with its values, some of them ahead of it. Activity calls are given as the source filed them.

Experiments:
HEK293 [1] = experiment: PMA/Ionomycin induced NF-kB luciferase assay in 293- NF-kB-Luc stable cells. [Related pubchem assays: 1299, 1270, 1295, 1375, 1287, 1281, 1293, 1291, 1289, 1280, 465, 1364, 1282, 1372, 1365, 1370, 1367, 1366, 1269, 1373, 1292, 1290, 1302, 1371, 1283, 1271, 1294, 1374, 1368, 1369 ]; assay type: functional, cell-based; details: Homo sapiens
HEK293 [2] = experiment: Cytotoxicity assay in HEK293 cells. [Related pubchem assays (depositor defined):AID1266, AID1269, AID1270, AID1271, AID1280, AID1281, AID1282, AID1283, AID1287, AID1289, AID1290, AID1291, AID1292, AID1293, AID1294, AID1295, AID1299, AID1302, AID1364, AID1365, AID1366, AID1367, AID1369, AID1370, AID1371, AID1372, AID1373, AID1374, AID1375, AID1384 …; assay type: functional, cell-based; details: Homo sapiens
[3] = biological target: Luciferin 4-monooxygenase (Photinus pyralis, UniProt P08659); experiment: In vitro luciferase assay using purified luciferase. [Related pubchem assays: 1299, 1270, 1295, 1375, 1287, 1281, 1293, 1291, 1289, 1280, 465, 1364, 1282, 1372, 1365, 1370, 1367, 1366, 1266, 1373, 1292, 1290, 1302, 1371, 1283, 1271, 1294, 1374, 1368, 1369 ]
Chain of Luciferin 4-monooxygenase (P08659 whole entry): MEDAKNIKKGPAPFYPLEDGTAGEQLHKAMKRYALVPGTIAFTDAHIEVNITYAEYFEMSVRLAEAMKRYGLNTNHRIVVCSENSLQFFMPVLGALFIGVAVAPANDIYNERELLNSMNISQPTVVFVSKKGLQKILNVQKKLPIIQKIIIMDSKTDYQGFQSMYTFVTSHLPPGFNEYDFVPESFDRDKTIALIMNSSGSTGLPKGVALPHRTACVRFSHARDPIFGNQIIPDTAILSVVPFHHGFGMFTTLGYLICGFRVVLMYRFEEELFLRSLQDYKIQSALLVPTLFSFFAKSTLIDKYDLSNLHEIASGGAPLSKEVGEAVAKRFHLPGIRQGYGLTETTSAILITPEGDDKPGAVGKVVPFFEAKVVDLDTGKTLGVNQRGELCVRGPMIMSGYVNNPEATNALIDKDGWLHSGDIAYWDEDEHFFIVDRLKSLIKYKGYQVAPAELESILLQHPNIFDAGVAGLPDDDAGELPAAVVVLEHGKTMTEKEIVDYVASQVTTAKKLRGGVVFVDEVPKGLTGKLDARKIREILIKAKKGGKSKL

Staphylococcus aureus = experiment: Inhibitors of Bacterial Quorum Sensing Structure Activity Relationship (SAR) Analysis: Dose Response Assay. [Related pubchem assays: 700, 527 ]; assay type: functional, organism-based
[4] = biological target: Melanin-concentrating hormone receptor 1 (Homo sapiens, UniProt Q99705); experiment: Late-stage fluorescence-based counterscreen for antagonists of the G-protein coupled receptor 7 (GPR7): cell-based dose response assay to identify antagonists of the melanin-concentrating hormone receptor 1 (MCHR1). [Related pubchem assays (depositor defined):AID1861, AID1880, AID1952, AID2148, AID2251, AID2257, AID485339]; assay type: functional;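 further: stimulated with 30 nM MCH peptide agonist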
Chain of Melanin-concentrating hormone receptor 1 (Q99705 whole entry): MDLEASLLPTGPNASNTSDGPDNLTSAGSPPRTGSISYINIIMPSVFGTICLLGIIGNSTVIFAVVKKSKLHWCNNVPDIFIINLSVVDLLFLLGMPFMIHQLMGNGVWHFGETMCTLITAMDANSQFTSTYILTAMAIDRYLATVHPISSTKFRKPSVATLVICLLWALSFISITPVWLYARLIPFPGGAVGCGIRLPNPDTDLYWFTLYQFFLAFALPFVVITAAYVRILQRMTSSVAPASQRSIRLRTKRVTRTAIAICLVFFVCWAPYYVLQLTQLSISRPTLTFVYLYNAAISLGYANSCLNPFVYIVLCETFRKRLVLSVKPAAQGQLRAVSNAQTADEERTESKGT

[5] = biological target: T1, Neuropeptides B/W receptor type 1 (Homo sapiens, UniProt P48145); experiment: GPR7 antagonist potency, late-stage follow-up, cell-based, fluorescence, dose response (AID 463251); assay type: functional
T1 sequence (P48145 whole entry): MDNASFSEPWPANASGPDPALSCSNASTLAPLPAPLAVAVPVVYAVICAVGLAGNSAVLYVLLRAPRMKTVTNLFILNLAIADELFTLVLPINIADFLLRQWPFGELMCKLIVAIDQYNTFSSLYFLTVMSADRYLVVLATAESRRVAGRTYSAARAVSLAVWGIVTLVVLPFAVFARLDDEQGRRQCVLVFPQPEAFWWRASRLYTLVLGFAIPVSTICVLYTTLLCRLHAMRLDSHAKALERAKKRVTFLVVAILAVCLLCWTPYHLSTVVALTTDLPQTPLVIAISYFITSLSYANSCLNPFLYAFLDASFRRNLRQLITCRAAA

[6] = biological target: T2, Tyrosine-protein phosphatase non-receptor type 7 (Homo sapiens, UniProt P35236); assay type: functional
T2 sequence (P35236 whole entry): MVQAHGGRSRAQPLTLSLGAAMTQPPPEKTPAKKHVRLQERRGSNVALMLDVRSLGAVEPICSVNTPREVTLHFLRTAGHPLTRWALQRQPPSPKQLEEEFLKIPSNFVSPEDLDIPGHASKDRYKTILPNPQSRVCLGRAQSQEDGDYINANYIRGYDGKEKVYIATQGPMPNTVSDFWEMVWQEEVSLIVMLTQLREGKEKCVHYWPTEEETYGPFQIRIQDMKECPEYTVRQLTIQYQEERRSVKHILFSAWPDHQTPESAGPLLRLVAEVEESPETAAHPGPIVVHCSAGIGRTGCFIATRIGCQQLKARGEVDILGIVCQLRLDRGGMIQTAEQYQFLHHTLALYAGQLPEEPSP

[7] = biological target: T3, Dual specificity protein phosphatase 6 (Rattus norvegicus, UniProt Q64346); assay type: functional
T3 sequence (Q64346 whole entry): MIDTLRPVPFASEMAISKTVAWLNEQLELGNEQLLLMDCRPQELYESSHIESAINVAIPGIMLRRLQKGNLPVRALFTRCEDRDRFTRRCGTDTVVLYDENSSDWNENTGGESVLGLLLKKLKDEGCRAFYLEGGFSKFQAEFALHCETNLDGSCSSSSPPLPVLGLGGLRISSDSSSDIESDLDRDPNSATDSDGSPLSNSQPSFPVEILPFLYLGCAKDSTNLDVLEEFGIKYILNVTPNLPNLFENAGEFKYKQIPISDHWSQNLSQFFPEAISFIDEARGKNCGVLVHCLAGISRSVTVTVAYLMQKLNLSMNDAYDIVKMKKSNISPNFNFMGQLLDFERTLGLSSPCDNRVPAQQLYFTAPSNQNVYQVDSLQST

[8] = biological target: Heat shock 70 kDa protein 1A (Homo sapiens, UniProt P0DMV8); experiment: Hsp70 inhibitors, SAR follow-up, biochemical, fluorescence polarization (AID 1072)
Chain of Heat shock 70 kDa protein 1A (P0DMV8 whole entry): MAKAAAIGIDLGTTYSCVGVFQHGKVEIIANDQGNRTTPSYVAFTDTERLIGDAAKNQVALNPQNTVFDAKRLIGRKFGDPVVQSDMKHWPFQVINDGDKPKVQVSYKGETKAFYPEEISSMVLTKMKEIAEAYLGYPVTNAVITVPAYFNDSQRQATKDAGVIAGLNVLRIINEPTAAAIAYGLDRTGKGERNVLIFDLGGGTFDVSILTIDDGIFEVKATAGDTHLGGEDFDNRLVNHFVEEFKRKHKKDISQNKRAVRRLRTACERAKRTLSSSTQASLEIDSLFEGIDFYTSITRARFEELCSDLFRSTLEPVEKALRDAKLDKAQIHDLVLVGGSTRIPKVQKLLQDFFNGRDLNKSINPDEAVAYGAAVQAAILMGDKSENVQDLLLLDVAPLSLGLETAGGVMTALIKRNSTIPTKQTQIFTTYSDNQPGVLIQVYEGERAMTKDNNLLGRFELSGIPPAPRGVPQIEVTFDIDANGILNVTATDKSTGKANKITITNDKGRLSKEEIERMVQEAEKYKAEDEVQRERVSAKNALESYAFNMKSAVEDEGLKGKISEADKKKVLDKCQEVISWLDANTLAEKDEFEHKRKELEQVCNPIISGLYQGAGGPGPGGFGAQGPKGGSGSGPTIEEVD

[9] = biological target: T3, Dual specificity protein phosphatase 6
[10] = biological target: Heat shock cognate 71 kDa protein (Homo sapiens, UniProt P11142); experiment: In Vitro Hsc70 Dose Response Fluorescence Polarization Assay. [Related pubchem assays: 1072 ]
Chain of Heat shock cognate 71 kDa protein (P11142 whole entry): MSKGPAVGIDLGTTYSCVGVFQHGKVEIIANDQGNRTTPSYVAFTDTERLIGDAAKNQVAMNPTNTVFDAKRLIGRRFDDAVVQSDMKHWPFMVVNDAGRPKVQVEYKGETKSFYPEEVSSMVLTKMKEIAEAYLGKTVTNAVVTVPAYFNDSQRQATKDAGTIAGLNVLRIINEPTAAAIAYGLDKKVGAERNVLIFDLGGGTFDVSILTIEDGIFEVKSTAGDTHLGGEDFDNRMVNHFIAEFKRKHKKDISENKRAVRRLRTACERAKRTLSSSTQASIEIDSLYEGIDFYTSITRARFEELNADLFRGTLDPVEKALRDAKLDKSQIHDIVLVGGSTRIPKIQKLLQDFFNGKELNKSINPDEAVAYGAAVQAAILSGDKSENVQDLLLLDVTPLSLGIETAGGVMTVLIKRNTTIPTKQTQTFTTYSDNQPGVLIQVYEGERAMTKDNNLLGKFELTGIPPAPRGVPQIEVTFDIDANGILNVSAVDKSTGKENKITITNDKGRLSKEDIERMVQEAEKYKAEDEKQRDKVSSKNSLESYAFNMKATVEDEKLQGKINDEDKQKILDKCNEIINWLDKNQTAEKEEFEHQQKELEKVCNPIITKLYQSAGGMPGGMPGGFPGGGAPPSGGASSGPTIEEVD

[11] = biological target: Glyceraldehyde-3-phosphate dehydrogenase (Homo sapiens, UniProt P04406)
Chain of Glyceraldehyde-3-phosphate dehydrogenase (P04406 whole entry): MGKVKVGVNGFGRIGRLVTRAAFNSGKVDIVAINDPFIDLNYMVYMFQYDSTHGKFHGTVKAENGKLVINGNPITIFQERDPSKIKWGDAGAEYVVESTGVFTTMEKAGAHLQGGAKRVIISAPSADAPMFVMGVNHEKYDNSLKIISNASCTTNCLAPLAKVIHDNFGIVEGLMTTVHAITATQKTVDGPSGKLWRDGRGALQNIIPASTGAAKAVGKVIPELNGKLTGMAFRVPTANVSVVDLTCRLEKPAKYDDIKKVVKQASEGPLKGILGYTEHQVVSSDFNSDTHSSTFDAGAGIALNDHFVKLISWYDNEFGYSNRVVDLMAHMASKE

Caspase-3 = biological target: T4, Caspase-3 (Homo sapiens, UniProt P42574); experiment: procaspase-3 activation potency of dual hits, dose response, counter-screen for dual procaspase-3/7 activator project, biochemical, absorbance, PC-3 D3A mutant (AID 504328)
T4 sequence (P42574 whole entry): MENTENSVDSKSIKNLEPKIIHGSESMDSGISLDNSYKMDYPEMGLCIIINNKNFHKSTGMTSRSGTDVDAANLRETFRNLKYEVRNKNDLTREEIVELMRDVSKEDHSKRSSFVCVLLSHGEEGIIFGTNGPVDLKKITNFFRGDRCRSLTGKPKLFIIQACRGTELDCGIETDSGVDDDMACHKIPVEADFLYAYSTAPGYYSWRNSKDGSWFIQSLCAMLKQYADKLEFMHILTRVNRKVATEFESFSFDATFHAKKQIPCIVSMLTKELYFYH

Caspase-7 = Caspase-7 (Homo sapiens, UniProt P55210); experiment: procaspase-7 activators, dose response, dual procaspase-3/-7 activator project, biochemical, absorbance, human (AID 504330)

IC50 [4]: 17 µM (inactive) | IC50 [5]: 10 µM (active)
Compound: Cc1ccc(-n2ncc(Cl)c(Oc3ccc(F)cc3C)c2=O)cc1

EC50 (Caspase-3): > 85.3 µM (inactive) | EC50 (Caspase-7): > 85.3 µM (inactive)
Compound: COc1ccc(C(=O)N/N=C/c2ccc3cccc(OCc4ccccc4)c3n2)cc1

Further lines, the compound ahead of its results:

Compound: C/C(=N\NC(=O)c1cccc([N+](=O)[O-])c1)c1ccccn1
EC50 (HEK293 [1]): 6.12 µM (not active) | EC50 (HEK293 [2]): 10.2 µM (inactive) | EC50 [3]: > 8 µM (not active)

Compound: Cc1ccc(C)c(S(=O)(=O)c2nnn3c2[nH]c(=O)c2sccc23)c1
IC50 (Staphylococcus aureus): 5.17 µM (active)

Compound: O=C(O)c1ccc2c(c1)C1C=CCC1C(C(=O)O)N2 (centres undefined)
IC50 [6]: 2.51 µM (active) | IC50 [7]: 15.5 µM (active) | IC50 [8]: 2.42 µM (active) | IC50 [9]: 17.8 µM (active) | IC50 [10]: > 100 µM (not active) | IC50 [11]: > 100 µM (not active)
